In US11015179B2, “Peptide having anti-viral effect and composition containing same” (priority 2015, dated 2021):

Key:
[1] = tested on: HBV; experiment: HBsAg ELISA in whole HBV W4P genome-transfected HepG2 cell line; assay type: cell-based, hepatitis B virus; conditions: 48 hours
[2] = tested on: HBV; experiment: Virion production (real-time PCR of HBV DNA) in W4P-transfected Huh7 cell line; assay type: cell-based, hepatitis B virus; conditions: Huh7, 10 μM, 48 hours
Description: (§1) To observe the potential for virion proliferation of whole HBV containing W4P, virion DNA was extracted from the entire supernatant while the medium was changed every 24 hours by the above-described method, and subjected to real-time quantitative PCR using a Quantitech SYBR Green Master-Mix kit (Qiagen). The entire supernatant was centrifuged using an ultracentrifuge equipped with an SW28 swing rotor at 20,000 rpm for 2 hours to precipitate the virus, and the precipitated viral pellets were suspended with 200 μl of sterilized DW. […] Real-time PCR was performed at 40 cycles of 5 min at 95° C., 15 sec at 94° C., and 15 sec at 60° C. using the Exicycler™ 96 Real-Time Quantitative Thermal Block System (Bioneer Co., Korea), and the temperature was increased from 53° C. to 90° C. by modulating to 0 sec at 95° C., 30 sec at 53° C. and modulating by 0.1° C. per second to analyze a melting curve.
(§2) To observe the virion production in the supernatant after the inhibition of HBsAg secretion by the PEP1 peptide was observed, virions were collected from the supernatant obtained by the above-described method using PEG 6000, and HBV DNA was obtained using a virus DNA prep kit (Intron, Korea), and then quantified by real-time PCR.

[3] = tested on: immune cells; experiment: Distribution of immune cells (FACS) in whole HBV W4P genome-transgenic mice; assay type: in vivo; conditions: 3TC
Description: PEP1 is an HLA Class II-binding peptide derived from telomerase, and a 16-amino acid peptide triggering cytotoxic T-cell and helper T-cell immune responses. Therefore, to observe a change in the distribution of renal immune cells by the PEP1 peptide, transgenic mice were prepared by injecting the whole HBV W4P variant genome, on week 4, the whole blood was collected from the mice, and immune cells were isolated from the kidneys of the mice and then stained with lymphocyte markers (B cells (CD19B), CD4, CD8, NK1.1 cells) and myeloid cell markers (DC (CD11c), a macrophage marker (F4/80), a neutrophil marker (Ly-6G), a monocyte marker (Gr1)) according to an extracellular cell surface staining method for FACS analysis.

[4] = tested on: HBV; assay type: in vivo, mice; conditions: caudal vein twice a week; PEP1 50 μg/kg, 3TC 500 μg/kg
Description: HBV transgenic mice were prepared by injecting a 1.1-fold HBV base sequence comprising a full open reading frame (ORF) into the fertilized eggs of the mice through microinjection. The base sequence of HBV used in the research was obtained using a pHY92-W4P plasmid. The pHY92-W4P plasmid was digested with EcoRi before injection into the fertilized eggs of the mice, and finally a base sequence of 3.9 kb in length was used for microinjection. Produced subjects were selected through PCR using a specific sequence of HBsAg. PCR-positive subjects were selected according to the concentrations of serum HBsAg and HBeAg, and finally used as PCR-positive, HBsAg-positive, and HBeAg-positive mice in the study. These mice were backcrossed with C57BL/6 mice to produce heterologous HBV transgenic mice.
HBsAg levels in the HBV-transgenic mice were determined using an HBsAg ELISA kit (BIOKIT, Germany). To quantify HBV titers, total DNA was extracted and confirmed by real-time PCR.
In addition, HBV virion DNA was obtained from mouse serum and subjected to real-time PCR.

[5] = tested on: HBV; experiment: Virion production (real-time PCR of HBV DNA) in W4P-transfected HepG2 cell line; assay type: cell-based, hepatitis B virus
Description: as §1
as §2, with “PCR. […]” for “PCR.”

[6] = tested on: macrophages; experiment: Differentiation of macrophages (FACS) in whole HBV W4P genome-transgenic mice; assay type: in vivo; conditions: eight weeks; PEP1 50 μg/kg, 3TC 500 μg/kg; vs PBS
Description: Therefore, to observe if the PEP1 peptide is able to differentiate macrophages to M1, eight weeks after PBS, 50 μg/kg of the PEP1 peptide and 500 μg/kg of 3TC were injected into the caudal vein of each of transgenic mice prepared by injecting the whole HBV W4P variant genome twice a week, the whole blood was collected from the mouse and a kidney of the mouse was extracted, immune cells were isolated and stained with a macrophage marker (F4/80) and M1 marker MHCII through an extracellular cell surface staining method. Afterward, FACS analysis was carried out.

[7] = tested on: INFγ; experiment: INFγ activity of immune cells (FACS) in whole HBV W4P genome-transgenic mice; assay type: in vivo; conditions: 8 weeks; PEP1 50 μg/kg, 3TC 500 μg/kg; HBsAg stimulation 72 hours
Description: INF, which is a hormone-like cytokine, is secreted from immune cells against a virus. INFs are present in three types such as α, β and γ, and among these, INFγ is known to be critical for inhibiting the hepatitis B virus (HBV) in humans. Therefore, to observe the activity of INFγ, as an immune response, by the PEP1 peptide, 8 weeks after 50 μg/kg of the PEP1 peptide and 500 μg/kg of 3TC were injected into the caudal vein of each of transgenic mice prepared by injection of the whole HBV W4P variant genome twice a week, the whole blood was collected and a kidney was extracted from the mouse, and then immune cells were isolated and treated with HBsAg for stimulation. Seventy two hours after the stimulation, the INFγ cytokine was accumulated in cells by Brefeldin A and stained by an intracellular staining method for FACS analysis.

[8] = tested on: IL-6; experiment: IL-6 ELISA in culture supernatant of W4P-transfected Huh7 cell line; assay type: cell-based, human; conditions: Huh7, 10 μM, 48 hours
Description: It has been reported that HBV preS1 W4P variants are closely related to production of IL-6, which is an inflammation regulatory cytokine. Therefore, to observe an anti-inflammatory effect of PEP1 in IL-6-induced cell lines, 48 hours after the whole HBV W4P genome was injected into HepG2 and Huh7 cell lines which were then treated with 10 μM PEP1 and 10 μM 3TC, respectively, IL-6 levels in the culture supernatants were observed through ELISA.

[9] = tested on: HSP 90, SOD, ERK, JAK2; experiment: Liver protein expression (western blotting) in whole HBV W4P genome-transgenic mice; assay type: in vivo; conditions: week 8; PEP1 50 μg/kg, 3TC 500 μg/kg
Description: To observe a change in protein expression affecting the antiviral effect by the PEP1 peptide, transgenic mice prepared by injecting the whole HBV W4P variant genome were used. The PEP1 peptide was injected into the caudal vein of the mouse at a concentration of 50 μg/kg twice a week. As a control group, 500 μg/kg of 3TC was injected like the PEP1 peptide. On week 8, the whole blood was collected from the mouse, and proteins were extracted from the liver of the mouse and subjected to western blotting to observe expression of the proteins.

[10] = tested on: HBV; experiment: Antiviral effect with HSP90 blockage in whole HBV wild-type genome-transfected HepG2 cell line (real-time quantitative PCR); assay type: cell-based, hepatitis B virus; conditions: HepG2, ETV 30 nM, 24 hours
Description: PEP1 has been known to pass through a cell membrane from the outside to the inside of the cells in a shuttle method via HSP90. To confirm if the antiviral effect is reduced in cells by blocking the HSP90 activity based on such a mechanism, in this research, a HepG2 cell line was transiently transfected with the whole HBV wild-type genome, treated with anti-GAPDH, anti-HSP (1 ug/ml, blockage of HSP90 activity) and 17-AAG (1 μM) for 1 hour, ant then with PBS (0.5%), entecavir (ETV, 30 nM) and PEP1 (5 μM) for 24 hours. Subsequently, the supernatant was collected and treated with PEG6000 to precipitate the virus, and viral DNA was extracted and subjected to real-time quantitative PCR to observe an antiviral effect. All experiments are independently performed in triplicate, and a statistical significance test was performed using one-way ANOVA through the Tukey's Multiple Comparison Test. ** p<0.05 versus PBS, and ## p<0.05 versus None.

Compound	HBsAg inhibitory effect vs control group ([1]; 3TC 10 μM, cell line not specified (Huh7, Huh7.5, HepG2 tested))	HBsAg in both pellets and supernatants ([1]; HepG2, 3TC 0.01-100 μM)	Virions produced in the supernatant [2]	Distribution of immune cells [3]	Level of HBsAg in serum, reduction effect on week 8 [4]	Level of HBsAg in serum, up to 4 weeks [4]	Serum virion level, inhibitory effect on week 8 [4]	Serum virion level, week 4 [4]	Virions produced in the supernatant ([5]; HepG2, 10 μM, 48 hours)	Virion synthesis according to concentration ([5]; HepG2, 3TC)	Distribution of macrophages among myeloid-derived cells [6]	Number of cells differentiated to M1 [6]	INFγ activity of CD4, CD8 and NK1.1 cells [7]	IL-6 level in culture supernatant [8]	JAK2 phosphorylation in liver [9]	Protein phosphorylation of ERK in liver [9]	Antiviral effect in untreated cells or cells treated with GAPDH, HSP90 or 17-AAG [10]
Nc1ccn([C@@H]2CS[C@H](CO)O2)c(=O)n1 [3TC, ramivudine]	exhibited higher inhibitory effects than the control group	showed inhibitory effects according to concentration	inhibitory effect	did not have an influence on the distribution of immune cells	no such effect	neither the PEP1 peptide nor 3TC showed a reduction effect	approximately 52%	did not show virion inhibitory effects	inhibitory effect	has an inhibitory effect on virion synthesis according to concentration	did not show a difference	did not show a difference	slightly increased activity	no effect on production of IL-6 cytokine	inhibited phosphorylation	inhibited phosphorylation	
C=C1[C@H](CO)[C@@H](O)C[C@@H]1n1cnc2c(=O)[nH]c(N)nc21 [ETV, entecavir]																	no difference in the antiviral effect
